Measured values reported in patent US3966701A, “Fibrinogen peptide derivatives” (The Dow Chemical Company, priority 1973, dated 1976).
Where a SMILES comes first, the peptide text is derived from it. The star is where a group is joined. Boc = CC(C)(C)OC(=O)*; OBn = c1ccc(CO*)cc1

How the values were obtained:
thrombin [1] = assay: in vitro plasma recalcification time (PRT): calcium ions added to oxalated plasma, clotting time measured; type: biochemical, dog
thrombin [2] = assay: in vitro thrombin time (TT): exogenous thrombin added to oxalated plasma, clotting time measured; type: biochemical; conditions: oxalated dog plasma, thrombin 1 unit/ml, control 15 sec
[3] = 0.25 mg/ml, clotting mixture (a), 0.2 ml oxalated dog plasma, control 66 sec
[4] = 0.5 mg/ml, clotting mixture (a), 0.2 ml oxalated dog plasma, control 66 sec
[5] = 1.0 mg/ml, clotting mixture (a), 0.2 ml oxalated dog plasma, control 66 sec
[6] = 1.5 mg/ml, clotting mixture (a), 0.2 ml oxalated dog plasma, control 66 sec

`CC(C)(C)OC(=O)N1CCC[C@H]1C(=O)N[C@@H](CCCNC(=N)N)C(=O)OCc1ccccc1.CO.Cc1ccc(S(=O)(=O)O)cc1` [Example 1, N-t-Butyloxycarbonyl-L-prolyl-L-arginine Benzyl Ester p-Toluenesulfonate Methanolate] (Boc-Pro-Arg-OBn) was tested, and the “PRT (average)” value (thrombin [1]; [3]) was 128 s, the “PRT (average)” value (thrombin [1]; [4]) was 160 s and the “PRT (average)” value (thrombin [1]; [5]) was 207 s. The “PRT (average)” value (thrombin [1]; [6]) was 229 s, the “PRT (average)” value (thrombin [1]; 2 mg/ml, clotting mixture (a), 0.2 ml oxalated dog plasma, control 66 sec) was 250 s and the “Thrombin Times (sec) at Peptide Concentrations (mg/ml)” value (“Thrombin Times (sec)” below) (thrombin [2]; 0.125 mg/ml peptide) was 40 s. The “Thrombin Times (sec)” value (thrombin [2]; 0.25 mg/ml peptide) was 44 s, the “Thrombin Times (sec)” value (thrombin [2]; 0.5 mg/ml peptide) was 73 s and the “Thrombin Times (sec)” value (thrombin [2]; 1.0 mg/ml peptide) was 91 s. The “Thrombin Times (sec)” value (thrombin [2]; 2.0 mg/ml peptide) was 159 s.
In the case of `CC(C)(C)OC(=O)NCC(=O)N1CCC[C@H]1C(=O)N[C@@H](CCCNC(=N)N)C(=O)OCc1ccccc1.Cc1ccc(S(=O)(=O)O)cc1` [Example 3, N-t-Butyloxycarbonylglycyl-L-prolyl-L-arginine Benzyl Ester p-Toluenesulfonate] (Boc-Gly-Pro-Arg-OBn), the “PRT (average)” value (thrombin [1]; [3]) is reported as 88 s, the “PRT (average)” value (thrombin [1]; [4]) is reported as 110 s and the “PRT (average)” value (thrombin [1]; [5]) is reported as 146 s. For the same molecule, the “PRT (average)” value (thrombin [1]; [6]) was 202 s, the “Thrombin Times (sec)” value (thrombin [2]; 0.125 mg/ml peptide) was 23 s and the “Thrombin Times (sec)” value (thrombin [2]; 0.25 mg/ml peptide) was 29 s. The “Thrombin Times (sec)” value (thrombin [2]; 0.5 mg/ml peptide) was 42 s, the “Thrombin Times (sec)” value (thrombin [2]; 1.0 mg/ml peptide) was 56 s and the “Thrombin Times (sec)” value (thrombin [2]; 2.0 mg/ml peptide) was 75 s.
For “Glycyl-L-Prolyl-L-Arginine Benzyl Ester p-Toluenesulfonate Trifluoroacetate [Example 4]”, the “PRT (average)” value (thrombin [1]; 0.25 mg/ml, clotting mixture (a), 0.2 ml oxalated dog plasma, control 55 sec) was 77 s, the “PRT (average)” value (thrombin [1]; 0.5 mg/ml, clotting mixture (a), 0.2 ml oxalated dog plasma, control 55 sec) was 100 s and the “PRT (average)” value (thrombin [1]; 1.0 mg/ml, clotting mixture (a), 0.2 ml oxalated dog plasma, control 55 sec) was 198 s. For the same molecule, the “PRT (average)” value (thrombin [1]; 1.5 mg/ml, clotting mixture (a), 0.2 ml oxalated dog plasma, control 55 sec) was 246 s, the “PRT (average)” value (thrombin [1]; 2 mg/ml, clotting mixture (a), 0.2 ml oxalated dog plasma, control 55 sec) was 296 s and the “Thrombin Times (sec)” value (thrombin [2]; 0.125 mg/ml peptide) was 19 s. For the same molecule, the “Thrombin Times (sec)” value (thrombin [2]; 0.25 mg/ml peptide) was 26 s, the “Thrombin Times (sec)” value (thrombin [2]; 0.5 mg/ml peptide) was 44 s and the “Thrombin Times (sec)” value (thrombin [2]; 1.0 mg/ml peptide) was 68 s. The “Thrombin Times (sec)” value (thrombin [2]; 2.0 mg/ml peptide) was 135 s.
With “L-Prolyl-L-arginine Benzyl Ester p-Toluenesulfonate Trifluoroacetate [Example 2]” the “PRT (average)” value (thrombin [1]; [3]) was 89 s, the “PRT (average)” value (thrombin [1]; [4]) was 102 s and the “PRT (average)” value (thrombin [1]; [5]) was 134 s. The “PRT (average)” value (thrombin [1]; [6]) was 209 s, the “Thrombin Times (sec)” value (thrombin [2]; 0.125 mg/ml peptide) was 19 s and the “Thrombin Times (sec)” value (thrombin [2]; 0.25 mg/ml peptide) was 23 s. For the same molecule, the “Thrombin Times (sec)” value (thrombin [2]; 0.5 mg/ml peptide) was 31 s, the “Thrombin Times (sec)” value (thrombin [2]; 1.0 mg/ml peptide) was 46 s and the “Thrombin Times (sec)” value (thrombin [2]; 2.0 mg/ml peptide) was 69 s.
“N-Benzyloxycarbonyl-L-prolyl-L-arginine Benzyl Ester p-Toluenesulfonate Methanolate [Example 5]” was tested, and the “PRT (average)” value (thrombin [1]; 0.25 mg/ml, clotting mixture (b), 0.1 ml oxalated dog plasma, control 115 sec) was 240 s, the “PRT (average)” value (thrombin [1]; 0.5 mg/ml, clotting mixture (b), 0.1 ml oxalated dog plasma, control 115 sec) was 270 s and the “PRT (average)” value (thrombin [1]; 1.0 mg/ml, clotting mixture (b), 0.1 ml oxalated dog plasma, control 115 sec) was 345 s. The “PRT (average)” value (thrombin [1]; 2 mg/ml, clotting mixture (b), 0.1 ml oxalated dog plasma, control 115 sec) was 435 s.
